# Laboratory results as given in patent US20080213385A1, “Formulations for 7- (T-Butoxy) Iminomethyl Camptothecin” (priority 2005, published 2008).
# Assays:
# [1] = In vitro dissolution rate testing (USP2 apparatus, paddle); format: physicochemical; conditions: 50 rpm, 37° C., 0.3% SDS in 1,000 mL water
# Procedure: The dissolution rate testing was done using an USP2 apparatus, paddle, 50 rpm, 37° C., 0.3% SDS in 1,000 mL water, n=3. For dissolution rate testing, the aqueous suspensions were diluted 1:5 with water and filled into vials (0.5 mg drug substance/vial).
# [2] = Particle size distribution by laser light scattering; format: physicochemical; conditions: after milling (unmilled for unmilled drug)
# Procedure: The aqueous nano-milling was performed in a ball mill using yittrium […] zirconia beads (0.5-0.6 mm in 0). For all trials the batch size was approximately 70 g. Prior to milling the beads were conditioned with 1% stabilizer solution for 24 hours at 1,200 rpm (minimal speed, 80 mL solution for 160 mL beads), rinsed with demineralized water until conductivity reading was the same as that of the water, placed in a 150-200° C. oven until dry and cooled to room temperature before use. Milling was performed at 3,200 rpm and milling times as outlined in Table 1 were used. Before and after milling the aqueous suspensions were characterized with respect to particle size distribution, appearance (microscopic pictures and laser light scattering), and dissolution rate and assay/degradation.
structure (smiles),measurement,setting,value
"CC[C@@]1(O)C(=O)OCc2c1cc1n(c2=O)Cc2c-1nc1ccccc1c2/C=N/OC(C)(C)C [Unmilled drug, 7-t-butoxyiminomethylcamptothecin]","Dissolution rate: % released, mean (n = 3), after 15 min","[1]; 0.5 mg drug substance/vial, 15 min",3%
same,"Dissolution rate: % released, mean (n = 3), after 30 min",[1]; 30 min,5%
same,"Dissolution rate: % released, mean (n = 3), after 60 min",[1]; 60 min,15%
same,"Dissolution rate: % released, mean (n = 3), after 120 min",[1]; 120 min,31%
same,"PSD (light scattering, after milling) x10",[2],x10 = 2 μm
same,"PSD (light scattering, after milling) x50",[2],x50 = 9 μm
same,"PSD (light scattering, after milling) x90",[2],x90 = 35 μm
